Data taken from US20220169632A1, “METHODS AND MATERIALS FOR INCREASING OR MAINTAINING NICOTINAMIDE MONONUCLEOTIDE ADENYLYL TRANSFERASE-2 (NMNAT2) POLYPEPTIDE LEVELS” (University of Pittsburgh - Of the Commonwealth System of …, priority 2019, published 2022).

How the values were obtained:
NMNAT2 [1] = assay: NMNAT2-Hibit nano-luciferase activity in stably transfected U87MG cells, various concentrations, 24 hours; format: cell-based; conditions: U87MG cells stably transfected with NMNAT2-Hibit luc plasmid
Description: Selected compounds were tested in vitro. U87MG cells were stably transfected with NMNAT2-Hibit luc plasmid. Cells were treated with a test compound at various concentrations for 24 hours. Cells were then collected and assayed for nano-luciferase activity.

NMNAT2 [2] = assay: NMNAT2-Hibit nano-luciferase activity in transfected U87MG cells, 25 μM, 24 hours; format: cell-based; conditions: NMNAT2-Hibit luc plasmid, 24 hours (Table B)
Description: Selected compounds were tested in vitro. Briefly, U87MG cells were transfected with NMNAT2-Hibit luc plasmid. Cells were treated with a test compound at 25 μM for 24 hours. Cells were then collected and assayed for nano-luciferase activity.

SMILES | E: compound efficacy for NMNAT2 activation (concentration giving >25% increase in NMNAT2 luciferase activity) (NMNAT2 [1]) | B: compound efficacy (IC50) for NMNAT2 activation; increase in NMNAT2 luciferase activity (NMNAT2 [2])
COc1ccccc1CNC(=O)C1CCCc2c1c1ccccc1n2Cc1cccc(F)c1 (centres unmarked) [BC20374] | + (“+” >25% increase in NMNAT2 luciferase activity at >25 μM.) | 
COc1cccc(CNC(=O)C2CCCc3c2c2ccccc2n3Cc2cccc(F)c2)c1 (centres unmarked) [BC20375] | + (“+” >25% increase in NMNAT2 luciferase activity at >25 μM.) | 
O=C(c1ccco1)N1CCN(C(=O)C2CCCc3c2c2ccccc2n3Cc2cccc(F)c2)CC1 (centres unmarked) [BC20376] | + (“+” >25% increase in NMNAT2 luciferase activity at >25 μM.) | 
CC(Cc1ccco1)NC(=O)C1CCCc2c1c1ccccc1n2Cc1cccc(F)c1 (centres unmarked) [BC20377] | + (“+” >25% increase in NMNAT2 luciferase activity at >25 μM.) | 
O=C(NCCc1ccccc1)C1CCCc2c1c1ccccc1n2Cc1cccc(F)c1 (centres unmarked) [BC20378] | ++ (“++” >25% increase in NMNAT2 luciferase activity at >1 μM ≤25 μM.) | 
O=C(NCc1cccnc1)C1CCCc2c1c1ccccc1n2Cc1cccc(F)c1 (centres unmarked) [BC20379] | ++ (“++” >25% increase in NMNAT2 luciferase activity at >1 μM ≤25 μM.) | 
O=C(NCc1ccncc1)C1CCCc2c1c1ccccc1n2Cc1cccc(F)c1 (centres unmarked) [BC20380] | + (“+” >25% increase in NMNAT2 luciferase activity at >25 μM.) | 
CCCCN(CC)Cc1ccc(CNC(=O)C2CCCc3c2c2ccccc2n3Cc2cccc(F)c2)o1 (centres unmarked) [BC20381] | ++ (“++” >25% increase in NMNAT2 luciferase activity at >1 μM ≤25 μM.) | 
O=C(C1CCCc2c1c1ccccc1n2Cc1cccc(F)c1)N(CCCN1CCOCC1)Cc1ccco1 (centres unmarked) [BC20382] | ++ (“++” >25% increase in NMNAT2 luciferase activity at >1 μM ≤25 μM.) | 
Cc1ccc(Cn2c3c(c4ccccc42)C(C(=O)NCc2ccco2)CCC3)cc1 (centres unmarked) [BC20383] | + (“+” >25% increase in NMNAT2 luciferase activity at >25 μM.) | 
Cc1ccc(Cn2c3c(c4ccccc42)C(C(=O)NCC2CCCO2)CCC3)cc1 (centres unmarked) [BC20384] | + (“+” >25% increase in NMNAT2 luciferase activity at >25 μM.) | 
Cc1ccc(Cn2c3c(c4ccccc42)C(C(=O)NCc2ccccc2F)CCC3)cc1 (centres unmarked) [BC20385] | ++ (“++” >25% increase in NMNAT2 luciferase activity at >1 μM ≤25 μM.) | 
Cc1ccc(Cn2c3c(c4ccccc42)C(C(=O)NCc2cccc(C)c2)CCC3)cc1 (centres unmarked) [BC20386] | ++ (“++” >25% increase in NMNAT2 luciferase activity at >1 μM ≤25 μM.) | 
COc1cccc(CNC(=O)C2CCCc3c2c2ccccc2n3Cc2ccc(C)cc2)c1 (centres unmarked) [BC20387] | + (“+” >25% increase in NMNAT2 luciferase activity at >25 μM.) | 
Cc1ccc(Cn2c3c(c4ccccc42)C(C(=O)NCCc2ccccc2)CCC3)cc1 (centres unmarked) [BC20388] | + (“+” >25% increase in NMNAT2 luciferase activity at >25 μM.) | 
Cc1ccc(Cn2c3c(c4ccccc42)C(C(=O)NCc2cccnc2)CCC3)cc1 (centres unmarked) [BC20389] | ++ (“++” >25% increase in NMNAT2 luciferase activity at >1 μM ≤25 μM.) | 
Cc1ccc(Cn2c3c(c4ccccc42)C(C(=O)NCc2ccncc2)CCC3)cc1 (centres unmarked) [BC20390] | + (“+” >25% increase in NMNAT2 luciferase activity at >25 μM.) | 
CCCCN(CC)Cc1ccc(CNC(=O)C2CCCc3c2c2ccccc2n3Cc2ccc(C)cc2)o1 (centres unmarked) [BC20391] | ++ (“++” >25% increase in NMNAT2 luciferase activity at >1 μM ≤25 μM.) | 
Cc1ccc(C)c(Cn2c(C(F)F)c(CCC(=O)NCC3CCCO3)c3ccccc32)c1 (centres unmarked) [BC20392] | + (“+” >25% increase in NMNAT2 luciferase activity at >25 μM.) | 
Cc1ccc(C)c(Cn2c(C(F)F)c(CCC(=O)NCc3ccccc3F)c3ccccc32)c1 [BC20393] | ++ (“++” >25% increase in NMNAT2 luciferase activity at >1 μM ≤25 μM.) | 
Cc1ccc(C)c(Cn2c(C(F)F)c(CCC(=O)NCc3cccc(F)c3)c3ccccc32)c1 [BC20394] | + (“+” >25% increase in NMNAT2 luciferase activity at >25 μM.) | 
Cc1ccc(C)c(Cn2c(C(F)F)c(CCC(=O)NCc3ccccc3C)c3ccccc32)c1 [BC20395] | ++ (“++” >25% increase in NMNAT2 luciferase activity at >1 μM ≤25 μM.) | 
Cc1cccc(CNC(=O)CCc2c(C(F)F)n(Cc3cc(C)ccc3C)c3ccccc23)c1 [BC20396] | ++ (“++” >25% increase in NMNAT2 luciferase activity at >1 μM ≤25 μM.) | 
COc1ccccc1CNC(=O)CCc1c(C(F)F)n(Cc2cc(C)ccc2C)c2ccccc12 [BC20397] | + (“+” >25% increase in NMNAT2 luciferase activity at >25 μM.) | 

SMILES | E: compound efficacy for NMNAT2 activation (concentration giving >25% increase in NMNAT2 luciferase activity) (NMNAT2 [1]) | B: compound efficacy (IC50) for NMNAT2 activation; increase in NMNAT2 luciferase activity (NMNAT2 [2])
COc1cccc(CNC(=O)CCc2c(C(F)F)n(Cc3cc(C)ccc3C)c3ccccc23)c1 [BC20398] | ++ (“++” >25% increase in NMNAT2 luciferase activity at >1 μM ≤25 μM.) | 
Cc1ccc(C)c(Cn2c(C(F)F)c(CCC(=O)N(CCCN3CCOCC3)Cc3ccco3)c3ccccc32)c1 [BC20399] | ++ (“++” >25% increase in NMNAT2 luciferase activity at >1 μM ≤25 μM.) | 
Cc1ccc(C)c(Cn2c(C(F)F)c(CCC(=O)N3CCN(C(=O)c4ccco4)CC3)c3ccccc32)c1 [BC20400] | ++ (“++” >25% increase in NMNAT2 luciferase activity at >1 μM ≤25 μM.) | 
Cc1ccc(C)c(Cn2c(C(F)F)c(CCC(=O)NC(C)Cc3ccco3)c3ccccc32)c1 (centres unmarked) [BC20401] | ++ (“++” >25% increase in NMNAT2 luciferase activity at >1 μM ≤25 μM.) | 
Cc1ccc(C)c(Cn2c(C(F)F)c(CCC(=O)NCCc3ccccc3)c3ccccc32)c1 [BC20402] | ++ (“++” >25% increase in NMNAT2 luciferase activity at >1 μM ≤25 μM.) | 
Cc1ccc(C)c(Cn2c(C(F)F)c(CCC(=O)NCc3cccnc3)c3ccccc32)c1 [BC20403] | + (“+” >25% increase in NMNAT2 luciferase activity at >25 μM.) | 
Cc1ccc(C)c(Cn2c(C(F)F)c(CCC(=O)NCc3ccncc3)c3ccccc32)c1 [BC20404] | ++ (“++” >25% increase in NMNAT2 luciferase activity at >1 μM ≤25 μM.) | 
Cc1ccc(C)c(Cn2c(C(F)F)c(C3CC(=O)Nc4cccc(C)c43)c3ccccc32)c1 (centres unmarked) [BC20405] | ++ (“++” >25% increase in NMNAT2 luciferase activity at >1 μM ≤25 μM.) | 
CCCCN(CC)Cc1ccc(CNC(=O)CCc2c(C(F)F)n(Cc3cc(C)ccc3C)c3ccccc23)o1 [BC20406] | +++ (“+++” >25% increase in NMNAT2 luciferase activity at ≤1 μM.) | 
O=C(NCc1noc2ccccc12)Nc1cccc(Cl)c1 [Compound 181001] |  | + (“+” <20% increase in NMNAT2 luciferase activity.)
O=C(NCc1noc2ccccc12)Nc1cccc(C(F)(F)F)c1 [Compound 181002] |  | + (“+” <20% increase in NMNAT2 luciferase activity.)
Cc1ccc(NC(=O)NCc2noc3ccccc23)c(Br)c1 [Compound 181003] |  | + (“+” <20% increase in NMNAT2 luciferase activity.)
Cc1ccc(NC(=O)NCc2noc3ccccc23)cc1F [Compound 181004] |  | + (“+” <20% increase in NMNAT2 luciferase activity.)
O=C(NCc1noc2ccccc12)Nc1ccc(F)c(Cl)c1 [Compound 181005] |  | + (“+” <20% increase in NMNAT2 luciferase activity.)
COc1ccc(NC(=O)NCc2noc3ccccc23)cc1Cl [Compound 181006] |  | + (“+” <20% increase in NMNAT2 luciferase activity.)
Cc1cc(Br)ccc1NC(=O)NCc1noc2ccccc12 [Compound 181007] |  | + (“+” <20% increase in NMNAT2 luciferase activity.)
COc1ccccc1CNC(=O)NCc1noc2ccccc12 [Compound 181008] |  | + (“+” <20% increase in NMNAT2 luciferase activity.)
CCc1ccc(NC(=O)NCc2noc3ccccc23)cc1 [Compound 181009] |  | + (“+” <20% increase in NMNAT2 luciferase activity.)
CC(C)c1ccc(NC(=O)NCc2noc3ccccc23)cc1 [Compound 181010] |  | + (“+” <20% increase in NMNAT2 luciferase activity.)
Cc1ccc(Cl)cc1N(C)C(=O)NCc1noc2ccccc12 [Compound 181011] |  | + (“+” <20% increase in NMNAT2 luciferase activity.)
Cc1ccccc1N(C)C(=O)NCc1noc2ccccc12 [Compound 181012] |  | + (“+” <20% increase in NMNAT2 luciferase activity.)
CN(C(=O)NCc1noc2ccccc12)c1cccc(Cl)c1 [Compound 181013] |  | + (“+” <20% increase in NMNAT2 luciferase activity.)
Cc1ccc(N(C)C(=O)NCc2noc3ccccc23)cc1C [Compound 181014] |  | + (“+” <20% increase in NMNAT2 luciferase activity.)
